Structures can show the parent of a compound that is named as a salt.
Biological target: IRE1α (Homo sapiens (Human), UniProt O75460, D688N)
Test: IRE1α TR-FRET competition binding assay (IRE1α HTRF)
Settings: TR-FRET competition binding to kinase domain of IRE1α
Summary of the method: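 Competition of compounds against an Alexa fluor 647 ATP-site probe (2 nM final) for the His-tagged kinase domain (0.25 nM final), detected via 2 nM Eu anti-His antibody by TR-FRET, 665 and 615 nm emission. Protein–antibody premix 1 h, 4° C; reaction 1 h, room temperature, pH 7.5 HEPES buffer.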

IRE1α, sequence (O75460 547-977 D688N): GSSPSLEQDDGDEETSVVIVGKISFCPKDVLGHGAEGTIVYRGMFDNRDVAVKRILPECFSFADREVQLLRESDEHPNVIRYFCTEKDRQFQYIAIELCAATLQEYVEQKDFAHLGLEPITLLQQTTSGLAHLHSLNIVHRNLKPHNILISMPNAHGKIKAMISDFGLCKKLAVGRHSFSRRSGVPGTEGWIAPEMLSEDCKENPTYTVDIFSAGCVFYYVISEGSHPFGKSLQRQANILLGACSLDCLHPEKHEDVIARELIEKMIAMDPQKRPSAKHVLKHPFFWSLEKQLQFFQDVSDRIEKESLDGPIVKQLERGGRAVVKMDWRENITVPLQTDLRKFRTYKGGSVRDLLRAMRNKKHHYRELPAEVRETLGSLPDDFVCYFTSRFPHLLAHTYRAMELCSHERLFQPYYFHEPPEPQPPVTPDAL

| Structure (SMILES) | IC50 [nM] |
| --- | --- |
| CC(C)n1c(=O)c(-c2ccc(NS(=O)(=O)Cc3ccccc3)c(F)c2)nc2cnc(N[C@H]3CC[C@H](N(C)CCF)CC3)nc21 [Compound 183, N-(2-fluoro-4-(2-(((1r,4r)-4-((2-fluoroethyl)(methyl)amino)cyclohexyl)amino)-8-isopropyl-7-oxo-7,8-dihydropteridin-6-yl)phenyl)-1-phenylmethanesulfonamide] | 0.12 |
| CC(C)n1c(=O)c(-c2ccc(NS(=O)(=O)Cc3ccc(F)cc3)c(F)c2)nc2cnc(N[C@H]3CC[C@H](N(C)C)CC3)nc21 [Compound 184, N-(4-(2-(((1r,4r)-4-(dimethylamino)cyclohexyl)amino)-8-isopropyl-7-oxo-7,8-dihydropteridin-6-yl)-2-fluorophenyl)-1-(4-fluorophenyl)methanesulfonamide] | 0.25 |
| CC(C)n1c(=O)c(-c2cc(F)c(NS(=O)(=O)Cc3ccccc3)c(F)c2F)nc2cnc(N[C@@H]3CNC[C@@H](F)C3)nc21 [Compound 185, 1-Phenyl-N-(2,3,6-trifluoro-4-(2-(((3S,5S)-5-fluoropiperidin-3-yl)amino)-8-isopropyl-7-oxo-7,8-dihydropteridin-6-yl)phenyl)methanesulfonamide] | 0.17 |
| Cc1cc(NS(=O)(=O)CCC(F)(F)F)ncc1-c1nc2cnc(N[C@H]3CC[C@H](N(C)C)CC3)nc2n(C(C)C)c1=O [Compound 186, N-(5-(2-(((1r,4r)-4-(Dimethylamino)cyclohexyl)amino)-8-isopropyl-7-oxo-7,8-dihydropteridin-6-yl)-4-methylpyridin-2-yl)-3,3,3-trifluoropropane-1-sulfonamide] | 0.95 |
| CC(C)n1c(=O)c(-c2ccc(NS(=O)(=O)CCC(F)(F)F)nc2)nc2cnc(N[C@H]3CC[C@H](N(C)CCF)CC3)nc21 [Compound 187, 3,3,3-Trifluoro-N-(5-(2-(((1r,4r)-4-((2-fluoroethyl)(methyl)amino)cyclohexyl)amino)-8-isopropyl-7-oxo-7,8-dihydropteridin-6-yl)pyridin-2-yl)propane-1-sulfonamide] | 0.31 |
| CC(C)n1c(=O)c(-c2ccc(NS(=O)(=O)c3ccccc3Cl)nc2)nc2cnc(N[C@H]3CC[C@H](N(C)CCF)CC3)nc21 [Compound 188, 2-Chloro-N-(5-(2-(((1r,4r)-4-((2-fluoroethyl)(methyl)amino)cyclohexyl)amino)-8-isopropyl-7-oxo-7,8-dihydropteridin-6-yl)pyridin-2-yl)benzenesulfonamide hydrochloride] | 0.27 |
| CC(C)n1c(=O)c(-c2cc(F)c(NS(=O)(=O)CCC(F)(F)F)cc2F)nc2cnc(N[C@H]3CC[C@H](N(C)C)CC3)nc21 [Compound 189, N-(4-(2-(((1r,4r)-4-(dimethylamino)cyclohexyl)amino)-8-isopropyl-7-oxo-7,8-dihydropteridin-6-yl)-2,5-difluorophenyl)-3,3,3-trifluoropropane-1-sulfonamide] | 0.49 |
| CC(C)n1c(=O)c(-c2ccc(NS(=O)(=O)c3ccccc3C#N)c(F)c2)nc2cnc(N[C@H]3CC[C@H](N(C)C)CC3)nc21 [Compound 190, 2-Cyano-N-(4-(2-(((1r,4r)-4-(dimethylamino)cyclohexyl)amino)-8-isopropyl-7-oxo-7,8-dihydropteridin-6-yl)-2-fluorophenyl)benzenesulfonamide] | 0.18 |
| CC(C)n1c(=O)c(-c2ccc(NS(=O)(=O)c3cccnc3)c(F)c2)nc2cnc(N[C@H]3CC[C@H](N(C)C)CC3)nc21 [Compound 191, N-(4-(2-(((1r,4r)-4-(Dimethylamino)cyclohexyl)amino)-8-isopropyl-7-oxo-7,8-dihydropteridin-6-yl)-2-fluorophenyl)pyridine-3-sulfonamide hydrochloride] | 0.25 |
| Cc1nc(NS(=O)(=O)c2ccccc2C#N)ccc1-c1nc2cnc(N[C@H]3CC[C@H](N(C)CCF)CC3)nc2n(C(C)C)c1=O [Compound 194, 2-Cyano-N-(5-(2-(((1r,4r)-4-((2-fluoroethyl)(methyl)amino)cyclohexyl)amino)-8-isopropyl-7-oxo-7,8-dihydropteridin-6-yl)-6-methylpyridin-2-yl)benzenesulfonamide] | 0.31 |
| Cc1nc(NS(=O)(=O)c2ccccc2Cl)ccc1-c1nc2cnc(N[C@H]3CC[C@H](N(C)CCF)CC3)nc2n(C(C)C)c1=O [Compound 195, 2-Chloro-N-(5-(2-(((1r,4r)-4-((2-fluoroethyl)(methyl)amino)cyclohexyl)amino)-8-isopropyl-7-oxo-7,8-dihydropteridin-6-yl)-6-methylpyridin-2-yl)benzenesulfonamide] | 0.29 |
| CC(C)n1c(=O)c(-c2ccc(NS(=O)(=O)CCC(F)(F)F)c(F)c2F)cc2cnc(N[C@H]3CC[C@H](N(C)C)CC3)nc21 [Compound 197, N-(4-(2-(((1,4-trans)-4-(Dimethylamino)cyclohexyl)amino)-8-isopropyl-7-oxo-7,8-dihydropyrido[2,3-d]pyrimidin-6-yl)-2,3-difluorophenyl)-3,3,3-trifluoropropane-1-sulfonamide] | 0.26 |
| CC(C)n1c(=O)c(-c2ccc(NS(=O)(=O)CCC(F)(F)F)c(F)c2)cc2cnc(N[C@H]3CC[C@H](N4CCC4)CC3)nc21 [Compound 198, N-(4-(2-(((1,4-trans)-4-(Azetidin-1-yl)cyclohexyl)amino)-8-isopropyl-7-oxo-7,8-dihydropyrido[2,3-d]pyrimidin-6-yl)-2-fluorophenyl)-3,3,3-trifluoropropane-1-sulfonamide formate] | 0.41 |
| CC(C)n1c(=O)c(-c2ccc(NS(=O)(=O)CCC(F)(F)F)c(F)c2)cc2cnc(N[C@H]3CC[C@H](N4CCCC4)CC3)nc21 [Compound 199, 3,3,3-Trifluoro-N-(2-fluoro-4-(8-isopropyl-7-oxo-2-(((1,4-trans)-4-(pyrrolidin-1-yl)cyclohexyl)amino)-7,8-dihydropyrido[2,3-d]pyrimidin-6-yl)phenyl)propane-1-sulfonamide] | 0.25 |
| CC(C)n1c(=O)c(-c2ccc(NS(=O)(=O)CCC(F)(F)F)c(F)c2)cc2cnc(NC3CCN(C)CC3)nc21 [Compound 200, 3,3,3-Trifluoro-N-(2-fluoro-4-(8-isopropyl-2-((1-methylpiperidin-4-yl)amino)-7-oxo-7,8-dihydropyrido[2,3-d]pyrimidin-6-yl)phenyl)propane-1-sulfonamide formate] | 20 |

The next lines start with the values.

| IC50 [nM] | Structure (SMILES) |
| --- | --- |
| 8.7 | CC(C)n1c(=O)c(-c2ccc(NS(=O)(=O)CCC(F)(F)F)c(F)c2)cc2cnc(NC3CCNCC3)nc21 [Compound 201, 3,3,3-Trifluoro-N-(2-fluoro-4-(8-isopropyl-7-oxo-2-(piperidin-4-ylamino)-7,8-dihydropyrido[2,3-d]pyrimidin-6-yl)phenyl)propane-1-sulfonamide] |
| 1 | CC(C)n1c(=O)c(-c2ccc(NS(=O)(=O)CCC(F)(F)F)c(F)c2)cc2cnc(N[C@H]3CC[C@H](N(C)CC4COC4)CC3)nc21 [Compound 204, 3,3,3-Trifluoro-N-(2-fluoro-4-(8-isopropyl-2-(((1,4-trans)-4-(methyl(oxetan-3-ylmethyl)amino)cyclohexyl)amino)-7-oxo-7,8-dihydropyrido[2,3-d]pyrimidin-6-yl)phenyl)propane-1-sulfonamide] |
| 0.14 | CCN(C)[C@H]1CC[C@H](Nc2ncc3cc(-c4ccc(NS(=O)(=O)CCC(F)(F)F)c(F)c4)c(=O)n(C(C)C)c3n2)CC1 [Compound 205, N-(4-(2-(((1,4-trans)-4-(Ethyl(methyl)amino)cyclohexyl)amino)-8-isopropyl-7-oxo-7,8-dihydropyrido[2,3-d]pyrimidin-6-yl)-2-fluorophenyl)-3,3,3-trifluoropropane-1-sulfonamide] |
| 0.17 | CC(C)n1c(=O)c(-c2ccc(NS(=O)(=O)CCC(F)(F)F)c(F)c2)cc2cnc(N[C@H]3CC[C@H](N(C)C4COC4)CC3)nc21 [Compound 206, 3,3,3-Trifluoro-N-(2-fluoro-4-(8-isopropyl-2-(((1,4-trans)-4-(methyl(oxetan-3-yl)amino)cyclohexyl)amino)-7-oxo-7,8-dihydropyrido[2,3-d]pyrimidin-6-yl)phenyl)propane-1-sulfonamide] |
| 0.21 | CC(C)n1c(=O)c(-c2ccc(NS(=O)(=O)CCC(F)(F)F)c(F)c2)cc2cnc(N[C@H]3CC[C@H](N(C)C4CC4)CC3)nc21 [Compound 207, N-(4-(2-(((1,4-trans)-4-(Cyclopropyl(methyl)amino)cyclohexyl)amino)-8-isopropyl-7-oxo-7,8-dihydropyrido[2,3-d]pyrimidin-6-yl)-2-fluorophenyl)-3,3,3-trifluoropropane-1-sulfonamide] |
| 1.2 | O=c1c(-c2ccc(NS(=O)(=O)Cc3ccccc3F)c(F)c2)cc2cnc(N[C@@H]3CNC[C@@H](F)C3)nc2n1CCO [Compound 208, N-[2-Fluoro-4-[2-[[(3S,5S)-5-fluoro-3-piperidyl]amino]-8-(2-hydroxyethyl)-7-oxo-pyrido[2,3-d]pyrimidin-6-yl]phenyl]-1-(2-fluorophenyl)methanesulfonamide] |
| 0.19 | CC(C)n1c(=O)c(-c2ccc(NS(=O)(=O)CCC(F)(F)F)c(F)c2)cc2cnc(N[C@H]3CC[C@H](N(C)CC4CCO4)CC3)nc21 (stereo partly drawn) [Compound 209, 3,3,3-Trifluoro-N-(2-fluoro-4-(8-isopropyl-2-(((1,4-trans)-4-(methyl(oxetan-2-ylmethyl)amino)cyclohexyl)amino)-7-oxo-7,8-dihydropyrido[2,3-d]pyrimidin-6-yl)phenyl)propane-1-sulfonamide] |
| 0.25 | COCCN(CCOC)[C@H]1CC[C@H](Nc2ncc3cc(-c4ccc(NS(=O)(=O)CCC(F)(F)F)c(F)c4)c(=O)n(C(C)C)c3n2)CC1 [Compound 210, N-(4-(2-(((1,4-trans)-4-(Bis(2-methoxyethyl)amino)cyclohexyl)amino)-8-isopropyl-7-oxo-7,8-dihydropyrido[2,3-d]pyrimidin-6-yl)-2-fluorophenyl)-3,3,3-trifluoropropane-1-sulfonamide] |
